Results: PubChem BioAssay AID588780 (Sanford-Burnham Center for Chemical Genomics, 2011)
The source made the active and inactive calls.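 The calls were made as follows: active = compounds whose fitted half-maximal concentration in the cell-protection dose series is at or below a set limit; inactive = the rest.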

tested on: H9c2 cardiomyocytes, 2-deoxyglucose stress, ATP luminescence, 2 h; experiment: H9c2 cell survival under 2-deoxyglucose stress – uHTS hits, dose response (AID 588780)

With `COC(=O)c1ccccc1NC(=O)/C=C/c1cc(OC)c(OC)c(OC)c1` as the compound, how does the IC50 read?
Its IC50 is 22.9 µM.

`O=C(Nc1cccc2cccnc12)c1ccc2sc([C@H]3C[C@H](O)[C@@H](CO)O3)nc2c1` was tested. Which IC50 did it give?
The IC50 was 14.3 µM.

Which IC50 does the source give for `O=C(Nc1ccccc1)c1nc[nH]c1C(=O)NCCCCNC(=O)c1[nH]cnc1C(=O)Nc1ccccc1` here?
Its IC50 is > 79 µM (inactive).

How did the IC50 turn out when `CCOc1ccc2[nH]c(=O)c(CN(Cc3ccco3)C(CC)c3nnnn3Cc3ccccc3)cc2c1` (configuration not stated) was run?
Its IC50 is > 79 µM (inactive).

Which IC50 does the source give for `COc1ccc(COc2cc(-c3cccc(OC)c3)nc3ccc(NC(=O)c4ccc(OC)cc4)cc23)cc1` here?
Its IC50 is 5.3 µM.

For `COCCN1CCN(c2c3c(nc4cc(-c5cccc(F)c5)nn24)CCC3)CC1`, which IC50 is on record?
The IC50 was 60.1 µM (inactive).

How did the IC50 turn out when `CCOC(=O)CSc1nc2ccccc2c(=O)[nH]1` was run?
The IC50 was > 79 µM (inactive).

`CCSc1nnc(NC(=O)C2Cc3ccccc3CN2S(=O)(=O)CC)s1` (configuration not stated) was tested. Which IC50 did it give?
The IC50 was 43.6 µM (inactive).

With `Cc1nc2ccccc2c(=O)[nH]1` as the compound, how does the IC50 read?
The IC50 was > 79 µM (inactive).

Which IC50 does the source give for `COc1ccc(OCC(O)Cn2c(Br)nc3c2c(=O)[nH]c(=O)n3C)cc1` (configuration not stated) here?
The IC50 was 38.7 µM (inactive).

For `O=C1OCCN1C(=O)[C@H]1[C@H](c2ccc([N+](=O)[O-])cc2)C(c2ccc(F)cc2)=NN1c1ccc(Br)cc1`, which IC50 is on record?
The IC50 was 6.03 µM.

Which IC50 does the source give for `C[C@H](CO)N1C[C@H](C)[C@@H](CN(C)C(=O)Nc2ccc3c(c2)OCO3)Oc2c(NC(=O)Nc3ccc(C(F)(F)F)cc3)cccc2C1=O` here?
Its IC50 is > 79 µM (inactive).

With `CC(OC(=O)Cc1n[nH]c(=O)c2ccccc12)C(=O)Nc1ccc(F)cc1Cl` (configuration not stated) as the compound, how does the IC50 read?
The IC50 was > 79 µM (inactive).

How did the IC50 turn out when `Cn1c(=O)n(CCc2ccccc2)c(=O)c2c1nc1n2CCN1Cc1ccco1` was run?
Its IC50 is 21.6 µM.

How did the IC50 turn out when `Cc1ccc(CNC(=O)c2oc3ccc(S(=O)(=O)N4CCOCC4)cc3c2C)cc1` was run?
The IC50 was 14.1 µM.

`COc1ccc(C(=O)O/N=C(/c2ccccc2)c2ccncc2)cc1OC` was tested. Which IC50 did it give?
The IC50 was > 79 µM (inactive).

`CCOC(=O)c1c2ccc(OCC(=O)N/N=C/c3ccc(C)cc3)cc2n2ccccc12` was tested. Which IC50 did it give?
Its IC50 is > 79 µM (inactive).

`O=C(N/N=C/c1ccc(-c2cccc([N+](=O)[O-])c2)o1)c1ccc([N+](=O)[O-])cc1` was tested. Which IC50 did it give?
Its IC50 is > 79 µM (inactive).

`COc1ccc(N(Cc2cc3cc(OC)ccc3[nH]c2=O)C(=O)c2cccnc2)cc1` was tested. Which IC50 did it give?
Its IC50 is > 79 µM (inactive).

How did the IC50 turn out when `Cc1cc(C)c2ccc(N)nc2c1O` was run?
The IC50 was > 79 µM (inactive).

For `CC(=O)Nc1cc(-c2cccc(C(=O)N(C)C)c2)cn2c(-c3ccc(C(C)=O)cc3)cnc12`, which IC50 is on record?
The IC50 was 15.1 µM.

For `COc1cccc(-c2cnc3c(NC(C)=O)cc(-c4cccc(NS(C)(=O)=O)c4)cn23)c1`, which IC50 is on record?
The IC50 was > 79 µM (inactive).

With `CN(C)S(=O)(=O)c1ccc(NC(=O)COC(=O)Cn2[nH]c(=O)c3ccccc3c2=O)cc1` as the compound, how does the IC50 read?
Its IC50 is 9.56 µM.

With `O=c1[nH]nc(-c2ccc(NCCO)c([N+](=O)[O-])c2)c2ccccc12` as the compound, how does the IC50 read?
The IC50 was > 79 µM (inactive).

`COc1ccc(/C=C/C(=O)c2ccccc2O)cc1CN1CCOCC1` was tested. Which IC50 did it give?
Its IC50 is 36.7 µM (inactive).

How did the IC50 turn out when `COc1cccc(OC)c1C(=O)Nc1ccc(Br)c(C(=O)c2ccccc2)c1` was run?
The IC50 was 10.7 µM.

How did the IC50 turn out when `CNC(=O)c1cccc(NC(=O)c2cc(-c3ccccc3)nc3c2cnn3C(C)C)c1` was run?
The IC50 was > 79 µM (inactive).

For `COc1ccc2oc(C(=O)Nc3ccc(N4CCOCC4)cc3)c(C)c2c1`, which IC50 is on record?
The IC50 was > 79 µM (inactive).

How did the IC50 turn out when `COc1cccc(/C=N/NC(=O)c2ccncc2)c1OC(=O)c1ccc(Br)cc1` was run?
The IC50 was 24.7 µM.

With `COc1cc(NC(=O)c2cc3ccccc3cc2OC)ccc1NC(=O)c1cccs1` as the compound, how does the IC50 read?
Its IC50 is > 79 µM (inactive).

Which IC50 does the source give for `C=CC[C@@H](CC(=O)N[C@H](CO)Cc1ccccc1)C(=O)N[C@@H](COC(=O)[C@@H](CC=C)CC(=O)OC(C)(C)C)Cc1ccccc1` here?
Its IC50 is 17.5 µM.

With `CCCCCn1c(=O)c(C(=O)NCc2ccccn2)c(O)c2ccccc21` as the compound, how does the IC50 read?
Its IC50 is 7.77 µM.

For `CCCCCn1nc(C(=O)OCC(=O)c2c(N)n(C)c(=O)n(C)c2=O)c2ccccc2c1=O`, which IC50 is on record?
The IC50 was 20.1 µM.

With `O=C(Nc1ccc2oc(-c3ccccc3F)nc2c1)c1ccc([N+](=O)[O-])o1` as the compound, how does the IC50 read?
The IC50 was > 79 µM (inactive).

How did the IC50 turn out when `CCc1nnc(NC(=O)CCC(=O)N2CCN(C3c4ccccc4-c4ccccc43)CC2)s1` was run?
The IC50 was > 79 µM (inactive).

How did the IC50 turn out when `CCOC(=O)c1c(NC(=O)COC(=O)Cc2n[nH]c(=O)c3ccccc23)sc(C(=O)NC)c1C` was run?
The IC50 was > 79 µM (inactive).

Which IC50 does the source give for `Cc1nc(N2CCN(S(=O)(=O)c3cccc4nonc34)CC2)c2c3c(sc2n1)CCCC3` here?
Its IC50 is > 79 µM (inactive).

Which IC50 does the source give for `COc1ccc(CCNC(=O)c2cc3c(C)nccc3[nH]c2=O)cc1OC` here?
The IC50 was 16.3 µM.

For `CCCNC(=O)c1ccc(N2CCC3(CC2)CC(c2ccccc2)=NO3)c(NC(=O)c2ccco2)c1`, which IC50 is on record?
The IC50 was > 79 µM (inactive).

For `Cc1cnc(C=O)c2cccc([N+](=O)[O-])c12`, which IC50 is on record?
The IC50 was 44.6 µM (inactive).

How did the IC50 turn out when `CCOC(=O)c1cccc(NC(=O)CSc2nc3ccccc3c(=O)n2CCOC)c1` was run?
The IC50 was 34.1 µM (inactive).

How did the IC50 turn out when `N#Cc1ccccc1S(=O)(=O)N1CCN(c2nc(-c3cccnc3)nc3ccccc23)CC1` was run?
Its IC50 is > 79 µM (inactive).

`O=S(=O)(c1cccc(F)c1)N1CCN(c2nc(-c3cccnc3)nc3ccccc23)CC1` was tested. Which IC50 did it give?
The IC50 was 16.1 µM.

With `NC(=O)c1cc2ccccc2o/c1=N\NC(=O)c1ccc(F)cc1` as the compound, how does the IC50 read?
The IC50 was 8.81 µM.

Which IC50 does the source give for `COc1ccc(-c2csc(/C(C#N)=C(\O)CSc3nccn3C)n2)cc1OC` here?
Its IC50 is > 79 µM (inactive).

With `O=C(CCc1nc2ccccc2c(=O)[nH]1)Nc1ccc(N2CCCCC2)cc1` as the compound, how does the IC50 read?
The IC50 was 19.8 µM.

`CCn1c(O)c(/C=N/N=C2CCCCC2)c2cc(C3=NNC(=O)CC3)ccc21` was tested. Which IC50 did it give?
Its IC50 is 12.5 µM.
